Assay results as given in patent US20220089575A1, “FARNESOID X RECEPTOR AGONISTS AND USES THEREOF” (Metacrine, Inc., priority 2017, published 2022).

Each compound was assayed against T1, hFXR (Homo sapiens, UniProt Q96RI1) (assay: In Vitro FXR Assay (TK): TK-ECRE-luc reporter in transfected CV-1 cells). Conditions: 18 hrs, luminescence, maximum efficacy of <25% of the Fexarmine control classified as '+'.
T1 construct: expressed in transfected cells; host or cells: CV-1 cells
T1 sequence (Q96RI1 1-486): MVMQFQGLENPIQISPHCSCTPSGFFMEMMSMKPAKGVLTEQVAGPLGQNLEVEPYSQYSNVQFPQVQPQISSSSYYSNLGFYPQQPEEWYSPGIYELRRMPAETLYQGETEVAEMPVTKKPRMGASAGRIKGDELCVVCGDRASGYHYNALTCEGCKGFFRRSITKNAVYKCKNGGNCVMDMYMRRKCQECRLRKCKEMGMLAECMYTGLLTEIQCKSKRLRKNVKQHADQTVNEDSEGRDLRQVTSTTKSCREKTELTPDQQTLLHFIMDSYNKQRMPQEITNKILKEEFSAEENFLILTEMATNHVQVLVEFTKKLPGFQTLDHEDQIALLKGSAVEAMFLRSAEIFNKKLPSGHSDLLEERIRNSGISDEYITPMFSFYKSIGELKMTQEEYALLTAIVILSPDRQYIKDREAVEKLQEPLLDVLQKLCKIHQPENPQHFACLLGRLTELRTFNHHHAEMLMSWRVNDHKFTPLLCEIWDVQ
T1 sequence (P19793 1-462 partner): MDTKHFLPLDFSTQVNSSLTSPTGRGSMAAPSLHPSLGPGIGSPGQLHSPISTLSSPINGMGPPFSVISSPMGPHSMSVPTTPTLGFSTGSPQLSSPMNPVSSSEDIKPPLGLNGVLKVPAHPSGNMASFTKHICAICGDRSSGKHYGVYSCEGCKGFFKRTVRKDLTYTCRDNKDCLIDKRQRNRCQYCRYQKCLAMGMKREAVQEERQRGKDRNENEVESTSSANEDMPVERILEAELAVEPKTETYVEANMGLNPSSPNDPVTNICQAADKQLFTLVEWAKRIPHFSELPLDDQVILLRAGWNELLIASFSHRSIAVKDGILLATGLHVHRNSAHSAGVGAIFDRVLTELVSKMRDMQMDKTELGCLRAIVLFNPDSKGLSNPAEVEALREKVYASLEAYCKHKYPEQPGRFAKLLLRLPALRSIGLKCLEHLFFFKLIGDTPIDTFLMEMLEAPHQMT
Type: cell-based
Procedure, shortened: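 Luciferase luminescence read-out from lysed CV-1 cells transiently co-expressing hFXR and hRXR with a TK-ECRE-luc reporter (pCMX-YFP co-transfected). Compound exposure lasted 18 h at 37 °C, 5% CO2, in medium containing charcoal super-stripped serum.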
For COc1ccc([C@H]2CC[C@H](CN(c3cccc(-c4cnn(C5CC5)c4)c3)C(=O)[C@H]3CC[C@H](OC(=O)NCCNS(C)(=O)=O)CC3)CC2)cc1C [Compound 26.24, trans-4-((3-(1-Cyclopropyl-1H-pyrazol-4-yl)phenyl)((trans-4-(4-methoxy-3-methylphenyl)cyclohexyl)methyl)carbamoyl)cyclohexyl (2-(methylsulfonamido)ethyl)carbamate], the EC50 was at most 250 nM.
COC(=O)NCCNC(=O)O[C@H]1CC[C@H](C(=O)N(C[C@H]2CC[C@H](c3ccc(OC)c(C)c3)CC2)c2cccc(-c3cnn(C4CC4)c3)c2)CC1 [Compound 26.25, trans-4-((3-(1-Cyclopropyl-1H-pyrazol-4-yl)phenyl)((trans-4-(4-methoxy-3-methylphenyl)cyclohexyl)methyl)carbamoyl)cyclohexyl methyl ethane-1,2-diyldicarbamate] showed an EC50 of at most 250 nM.
COc1ccc([C@H]2CC[C@H](CN(c3cc(-c4coc(C5CC5)n4)ccn3)C(=O)[C@H]3CC[C@H](CNS(C)(=O)=O)CC3)CC2)nc1C [Compound 26.26, trans-N-(4-(2-Cyclopropyloxazol-4-yl)pyridin-2-yl)-N-((trans-4-(5-methoxy-6-methylpyridin-2-yl)cyclohexyl)methyl)-4-(methylsulfonamidomethyl) cyclohexanecarboxamide] was tested, and the EC50 was at most 250 nM.
COC(=O)NC[C@H]1CC[C@H](C(=O)N(C[C@H]2CC[C@H](c3ccc(OC)c(C)n3)CC2)c2cc(-c3coc(C4CC4)n3)ccn2)CC1 [Compound 26.27, Methyl ((trans-4-((4-(2-cyclopropyloxazol-4-yl)pyridin-2-yl)((trans-4-(5-methoxy-6-methylpyridin-2-yl)cyclohexyl)methyl)carbamoyl)cyclohexyl)methyl)carbamate] gave an EC50 of at most 250 nM.
With CCOC(=O)NC[C@H]1CC[C@H](C(=O)N(C[C@H]2CC[C@H](c3ccc(OC)c(C)n3)CC2)c2cc(-c3coc(C4CC4)n3)ccn2)CC1 [Compound 26.28] the EC50 was at most 250 nM.
Compound COc1ccc([C@H]2CC[C@H](CN(c3cc(-c4coc(C5CC5)n4)ccn3)C(=O)[C@H]3CC[C@H](CNC(=O)CO)CC3)CC2)nc1C [Compound 26.29, trans-N-(4-(2-Cyclopropyloxazol-4-yl)pyridin-2-yl)-4-((2-hydroxyacetamido)methyl)-N-((trans-4-(5-methoxy-6-methylpyridin-2-yl)cyclohexyl)methyl) cyclohexanecarboxamide] has an EC50 of 250 to 1000 nM.
Work on COc1ccc([C@H]2CC[C@H](CN(c3cc(-c4cnn(C5CC5)c4)ccn3)C(=O)[C@H]3CC[C@H](NC(C)=O)CC3)CC2)cc1C [Compound 26.30, trans-4-Acetamido-N-(4-(1-cyclopropyl-1H-pyrazol-4-yl)pyridin-2-yl)-N-((trans-4-(4-methoxy-3-methylphenyl)cyclohexyl)methyl) cyclohexanecarboxamide] yielded an EC50 of at most 250 nM.
COc1ccc([C@H]2CC[C@H](CN(c3cc(-c4cnn(C5CC5)c4)ccn3)C(=O)[C@H]3CC[C@H](NC(=O)COC(C)=O)CC3)CC2)cc1C [Compound 26.31, 2-((trans-4-(4-(1-Cyclopropyl-1H-pyrazol-4-yl)pyridin-2-yl)((trans-4-(4-methoxy-3-methylphenyl)cyclohexyl)methyl)carbamoyl)cyclohexyl)amino)-2-oxoethyl acetate] gave an EC50 of at most 250 nM.
COc1ccc([C@H]2CC[C@H](CN(c3cc(-c4cnn(C5CC5)c4)ccn3)C(=O)[C@H]3CC[C@H](NC(=O)CO)CC3)CC2)cc1C [Compound 26.32, trans-N-(4-(1-Cyclopropyl-1H-pyrazol-4-yl)pyridin-2-yl)-4-(2-hydroxyacetamido)-N-((trans-4-(4-methoxy-3-methylphenyl)cyclohexyl)methyl) cyclohexanecarboxamide] was tested, and the EC50 was at most 250 nM.
In the case of COc1ccc([C@H]2CC[C@H](CN(c3cc(-c4cnn(C(C)C)c4)ccn3)C(=O)[C@H]3CC[C@H](NC(C)=O)CC3)CC2)cc1C [Compound 26.33, trans-4-Acetamido-N-(4-(1-isopropyl-1H-pyrazol-4-yl)pyridin-2-yl)-N-((trans-4-(4-methoxy-3-methylphenyl)cyclohexyl)methyl)cyclohexanecarboxamide], the EC50 is reported as at most 250 nM.
